Series [1] is described as follows: Half life in Lewis rat at 2 mg/kg, iv. It is filed as ADME, organism-based. Further details: dose 2 mg/kg, route intravenous. The conditions noted are these: in vivo.
For the next series, the target named is Cytochrome P450 2D6 (Homo sapiens, UniProt P10635). The series is described as follows: Inhibition of CYP2D6. It is filed as ADME.
For series [2], the target named is Proto-oncogene tyrosine-protein kinase receptor Ret (Homo sapiens, UniProt P07949). The series is described as follows: Inhibition of RET at 10 uM.
Chain of Proto-oncogene tyrosine-protein kinase receptor Ret (P07949 whole entry): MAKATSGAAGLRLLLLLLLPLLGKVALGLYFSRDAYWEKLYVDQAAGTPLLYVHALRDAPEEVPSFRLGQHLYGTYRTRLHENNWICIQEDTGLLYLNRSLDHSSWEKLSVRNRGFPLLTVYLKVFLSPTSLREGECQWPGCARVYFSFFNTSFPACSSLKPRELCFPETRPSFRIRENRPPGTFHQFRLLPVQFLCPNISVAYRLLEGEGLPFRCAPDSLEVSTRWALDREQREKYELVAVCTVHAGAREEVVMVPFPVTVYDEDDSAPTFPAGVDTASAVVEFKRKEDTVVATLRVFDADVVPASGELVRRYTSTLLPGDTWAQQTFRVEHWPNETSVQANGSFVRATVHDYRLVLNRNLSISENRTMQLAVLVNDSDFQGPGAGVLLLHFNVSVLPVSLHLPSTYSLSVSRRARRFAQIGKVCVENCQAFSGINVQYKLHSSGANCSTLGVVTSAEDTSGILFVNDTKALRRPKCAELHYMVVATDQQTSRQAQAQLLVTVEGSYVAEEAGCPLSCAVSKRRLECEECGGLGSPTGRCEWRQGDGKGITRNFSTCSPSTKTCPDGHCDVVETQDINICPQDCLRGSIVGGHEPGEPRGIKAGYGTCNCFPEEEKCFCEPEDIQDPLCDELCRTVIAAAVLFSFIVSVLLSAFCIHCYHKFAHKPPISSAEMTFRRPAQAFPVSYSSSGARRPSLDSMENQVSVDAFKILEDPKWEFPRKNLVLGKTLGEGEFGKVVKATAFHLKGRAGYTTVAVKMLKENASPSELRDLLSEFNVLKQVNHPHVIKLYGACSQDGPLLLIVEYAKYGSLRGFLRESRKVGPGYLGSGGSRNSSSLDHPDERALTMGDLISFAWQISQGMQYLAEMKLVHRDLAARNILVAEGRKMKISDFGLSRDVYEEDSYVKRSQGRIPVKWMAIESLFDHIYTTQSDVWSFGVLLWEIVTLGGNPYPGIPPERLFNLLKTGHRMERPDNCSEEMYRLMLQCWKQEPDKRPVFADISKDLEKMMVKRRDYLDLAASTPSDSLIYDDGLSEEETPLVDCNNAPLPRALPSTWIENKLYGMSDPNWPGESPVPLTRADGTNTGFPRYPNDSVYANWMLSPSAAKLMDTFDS
The next series has as its target Cytochrome P450 2C9 (Homo sapiens, UniProt P11712). Description: Inhibition of CYP2C9. It is filed as ADME.
The target in series [3] is T1, Inhibitor of nuclear factor kappa-B kinase subunit beta (Homo sapiens, UniProt O14920).
T1 sequence (O14920 whole entry): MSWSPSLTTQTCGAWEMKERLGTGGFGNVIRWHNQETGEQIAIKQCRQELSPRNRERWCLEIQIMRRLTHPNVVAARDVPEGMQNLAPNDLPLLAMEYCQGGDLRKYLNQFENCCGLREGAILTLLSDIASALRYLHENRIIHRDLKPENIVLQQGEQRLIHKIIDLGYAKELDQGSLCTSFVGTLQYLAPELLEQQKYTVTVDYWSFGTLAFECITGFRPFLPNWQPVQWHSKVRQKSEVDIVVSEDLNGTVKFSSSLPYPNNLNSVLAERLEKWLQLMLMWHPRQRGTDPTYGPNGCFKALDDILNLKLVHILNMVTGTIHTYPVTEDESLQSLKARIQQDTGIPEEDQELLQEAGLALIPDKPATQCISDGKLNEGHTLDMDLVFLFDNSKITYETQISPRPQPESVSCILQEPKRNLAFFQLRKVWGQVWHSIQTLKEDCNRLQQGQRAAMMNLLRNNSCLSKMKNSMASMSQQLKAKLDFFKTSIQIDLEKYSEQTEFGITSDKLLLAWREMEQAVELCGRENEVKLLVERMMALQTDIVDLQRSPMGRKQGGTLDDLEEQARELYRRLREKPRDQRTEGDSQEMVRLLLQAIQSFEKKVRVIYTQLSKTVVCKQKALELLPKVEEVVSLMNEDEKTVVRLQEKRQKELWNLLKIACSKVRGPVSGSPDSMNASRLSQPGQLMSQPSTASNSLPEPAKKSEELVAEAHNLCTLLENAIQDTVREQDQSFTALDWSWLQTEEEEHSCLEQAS
Description: Inhibition of human IKK2-mediated GST-IkappaBalpha protein fusion phosphorylation.

The nature of series [4]: Lipophilicity, log P of the compound by HPLC analysis. It is filed as physicochemical.
Series [5] has as its system Mus musculus. The series is described as follows: Reduction in TNBS-induced colitis in intrarectally dosed mouse […] model assessed as decrease of body weight loss administered 1 day before TNBS challenge twice daily for 4 days. The format is functional, organism-based.
The nature of series [6]: AUC in Sprague-Dawley rat liver at 2 mg/kg, iv after 8 hrs. The format is ADME, organism-based. Also on record: time < 8 hr, dose 2 mg/kg, route intravenous.
The target of series [7] is Vascular endothelial growth factor receptor 3 (Homo sapiens, UniProt P35916). Description: Inhibition of FLT4.
Chain of Vascular endothelial growth factor receptor 3 (P35916 whole entry): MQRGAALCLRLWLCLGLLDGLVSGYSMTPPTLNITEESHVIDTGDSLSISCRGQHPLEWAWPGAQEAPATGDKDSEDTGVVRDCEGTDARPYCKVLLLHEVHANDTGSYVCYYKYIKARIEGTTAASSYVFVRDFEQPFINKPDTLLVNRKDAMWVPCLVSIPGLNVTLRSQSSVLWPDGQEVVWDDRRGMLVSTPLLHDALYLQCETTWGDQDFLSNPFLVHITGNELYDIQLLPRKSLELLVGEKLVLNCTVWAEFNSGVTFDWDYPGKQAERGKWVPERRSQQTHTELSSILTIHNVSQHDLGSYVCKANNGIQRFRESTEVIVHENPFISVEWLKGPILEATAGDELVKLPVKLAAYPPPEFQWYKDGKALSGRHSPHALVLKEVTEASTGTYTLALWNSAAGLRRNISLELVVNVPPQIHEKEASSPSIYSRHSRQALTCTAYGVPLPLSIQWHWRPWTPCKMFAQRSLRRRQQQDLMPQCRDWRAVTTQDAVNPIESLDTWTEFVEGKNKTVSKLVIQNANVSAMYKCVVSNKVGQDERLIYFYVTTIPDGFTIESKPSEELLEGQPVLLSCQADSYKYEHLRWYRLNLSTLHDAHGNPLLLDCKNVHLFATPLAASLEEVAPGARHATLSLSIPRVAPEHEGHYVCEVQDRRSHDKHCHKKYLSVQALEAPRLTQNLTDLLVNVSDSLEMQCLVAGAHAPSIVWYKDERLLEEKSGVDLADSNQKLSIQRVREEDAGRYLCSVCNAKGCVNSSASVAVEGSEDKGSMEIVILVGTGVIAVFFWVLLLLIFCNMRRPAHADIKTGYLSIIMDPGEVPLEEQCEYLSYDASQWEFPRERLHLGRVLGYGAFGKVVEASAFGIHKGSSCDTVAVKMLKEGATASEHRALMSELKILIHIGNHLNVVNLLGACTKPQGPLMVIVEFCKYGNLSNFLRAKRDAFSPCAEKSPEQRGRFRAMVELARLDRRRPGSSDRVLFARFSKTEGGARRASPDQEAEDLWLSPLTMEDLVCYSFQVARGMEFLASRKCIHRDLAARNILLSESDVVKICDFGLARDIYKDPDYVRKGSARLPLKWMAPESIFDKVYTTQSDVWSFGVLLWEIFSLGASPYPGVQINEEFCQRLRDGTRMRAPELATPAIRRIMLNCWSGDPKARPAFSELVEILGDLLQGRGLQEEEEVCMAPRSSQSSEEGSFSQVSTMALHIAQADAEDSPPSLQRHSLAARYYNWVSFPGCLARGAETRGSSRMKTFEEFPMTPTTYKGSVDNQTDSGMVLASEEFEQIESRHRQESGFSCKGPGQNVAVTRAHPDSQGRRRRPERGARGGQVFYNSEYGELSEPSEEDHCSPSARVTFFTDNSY
The nature of series [8]: Protein binding in rat serum. It is filed as ADME, cell-free. As to conditions: read-out: PB (converted).
The test system of series [9] is Mus musculus. The series is described as follows: Reduction in TNBS-induced colitis in intrarectally dosed mouse […] model assessed as decrease of colon length administered 1 day before TNBS challenge twice daily for 4 days. It is filed as functional, organism-based.
Series [10] deals with Ephrin type-B receptor 1 (Homo sapiens) (UniProt P54762). Description: Inhibition of EphB1 at 10 uM.
Chain of Ephrin type-B receptor 1 (Homo sapiens) (P54762 whole entry): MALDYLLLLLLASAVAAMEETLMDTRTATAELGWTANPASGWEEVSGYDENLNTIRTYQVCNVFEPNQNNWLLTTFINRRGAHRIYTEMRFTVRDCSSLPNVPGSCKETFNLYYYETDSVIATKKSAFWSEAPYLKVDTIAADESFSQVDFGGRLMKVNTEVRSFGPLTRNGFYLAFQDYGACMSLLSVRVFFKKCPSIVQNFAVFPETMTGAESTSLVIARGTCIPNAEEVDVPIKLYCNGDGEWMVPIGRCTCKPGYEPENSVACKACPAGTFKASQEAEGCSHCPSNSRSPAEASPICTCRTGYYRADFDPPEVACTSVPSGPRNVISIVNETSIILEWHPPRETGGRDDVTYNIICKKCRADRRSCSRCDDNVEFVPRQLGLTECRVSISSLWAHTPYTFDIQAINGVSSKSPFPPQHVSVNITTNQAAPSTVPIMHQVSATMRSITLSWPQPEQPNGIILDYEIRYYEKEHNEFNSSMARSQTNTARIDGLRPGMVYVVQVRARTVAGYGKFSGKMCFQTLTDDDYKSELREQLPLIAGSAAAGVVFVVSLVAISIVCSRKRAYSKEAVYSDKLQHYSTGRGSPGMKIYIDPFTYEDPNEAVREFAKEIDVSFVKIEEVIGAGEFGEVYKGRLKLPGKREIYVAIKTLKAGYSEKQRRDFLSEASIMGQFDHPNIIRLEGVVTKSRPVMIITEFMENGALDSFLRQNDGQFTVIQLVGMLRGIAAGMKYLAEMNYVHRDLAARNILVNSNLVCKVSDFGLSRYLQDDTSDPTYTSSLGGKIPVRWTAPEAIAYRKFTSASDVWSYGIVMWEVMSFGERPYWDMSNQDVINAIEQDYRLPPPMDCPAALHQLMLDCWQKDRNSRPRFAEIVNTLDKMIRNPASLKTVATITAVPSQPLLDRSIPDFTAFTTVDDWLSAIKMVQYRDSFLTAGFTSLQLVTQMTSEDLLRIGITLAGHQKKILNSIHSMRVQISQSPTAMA
Another series deals with Cytochrome P450 2C19 (Homo sapiens, UniProt P33261). The series is described as follows: Inhibition of CYP2C19. The format is ADME.
Chain of Cytochrome P450 2C19 (P33261 whole entry): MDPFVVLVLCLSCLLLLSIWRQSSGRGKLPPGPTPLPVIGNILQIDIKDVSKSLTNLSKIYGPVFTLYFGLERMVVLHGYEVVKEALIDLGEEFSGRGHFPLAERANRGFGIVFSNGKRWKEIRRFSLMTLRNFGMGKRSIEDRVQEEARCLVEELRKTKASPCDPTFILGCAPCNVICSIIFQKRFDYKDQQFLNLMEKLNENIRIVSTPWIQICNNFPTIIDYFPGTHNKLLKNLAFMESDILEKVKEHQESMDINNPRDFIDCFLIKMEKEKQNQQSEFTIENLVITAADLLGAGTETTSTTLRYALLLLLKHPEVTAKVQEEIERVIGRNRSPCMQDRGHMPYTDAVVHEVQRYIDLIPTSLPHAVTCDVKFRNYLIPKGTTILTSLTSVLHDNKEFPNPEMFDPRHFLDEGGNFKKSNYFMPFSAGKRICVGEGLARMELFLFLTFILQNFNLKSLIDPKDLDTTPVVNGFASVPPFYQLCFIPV
A short description of series [11]: Half life in mouse at 2 mg/kg, iv. The format is ADME, organism-based. Also on record: dose 2 mg/kg, route intravenous. The conditions noted are these: in vivo.
Series [12] can be described thus: AUC in SJL mouse liver at 8 mg/kg, iv after 8 hrs. It is filed as ADME, organism-based. Further details: time < 8 hr, dose 8 mg/kg, route intravenous.
Series [13] can be described thus: Clearance in mouse at 2 mg/kg, iv. The format is ADME, organism-based. Further details: dose 2 mg/kg, route intravenous. The conditions noted are these: in vivo.
The next series has as its system Blood. Description: Antiinflammatory activity in rat whole blood assessed as inhibition of LPS-induced TNFalpha release treated for 45 mins before LPS challenge measured after 6 hrs by ELISA. The format is functional, tissue-based. Background: ELISA stands for enzyme-linked immunosorbent assay.
The target in a further series is Ephrin type-B receptor 1 (Homo sapiens, UniProt P54762). Description: Inhibition of EphB1.
Chain of Ephrin type-B receptor 1 (P54762 whole entry): as the sequence (P54762 whole entry) above

Structures are written as SMILES.

Chain of Cytochrome P450 2D6 (P10635 whole entry): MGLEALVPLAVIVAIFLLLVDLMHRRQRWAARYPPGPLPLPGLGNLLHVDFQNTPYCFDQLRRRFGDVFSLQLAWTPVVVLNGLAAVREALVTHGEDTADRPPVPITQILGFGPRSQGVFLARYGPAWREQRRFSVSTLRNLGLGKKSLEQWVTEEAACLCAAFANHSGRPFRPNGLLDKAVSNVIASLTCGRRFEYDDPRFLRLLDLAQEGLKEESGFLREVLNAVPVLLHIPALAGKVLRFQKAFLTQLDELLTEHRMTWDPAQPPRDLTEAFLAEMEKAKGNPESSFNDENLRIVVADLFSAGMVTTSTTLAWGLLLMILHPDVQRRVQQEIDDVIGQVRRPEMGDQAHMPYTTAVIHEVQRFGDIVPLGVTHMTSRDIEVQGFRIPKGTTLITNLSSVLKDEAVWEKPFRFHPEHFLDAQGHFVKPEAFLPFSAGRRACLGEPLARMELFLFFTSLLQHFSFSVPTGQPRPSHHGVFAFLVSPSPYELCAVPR
Chain of Cytochrome P450 2C9 (P11712 whole entry): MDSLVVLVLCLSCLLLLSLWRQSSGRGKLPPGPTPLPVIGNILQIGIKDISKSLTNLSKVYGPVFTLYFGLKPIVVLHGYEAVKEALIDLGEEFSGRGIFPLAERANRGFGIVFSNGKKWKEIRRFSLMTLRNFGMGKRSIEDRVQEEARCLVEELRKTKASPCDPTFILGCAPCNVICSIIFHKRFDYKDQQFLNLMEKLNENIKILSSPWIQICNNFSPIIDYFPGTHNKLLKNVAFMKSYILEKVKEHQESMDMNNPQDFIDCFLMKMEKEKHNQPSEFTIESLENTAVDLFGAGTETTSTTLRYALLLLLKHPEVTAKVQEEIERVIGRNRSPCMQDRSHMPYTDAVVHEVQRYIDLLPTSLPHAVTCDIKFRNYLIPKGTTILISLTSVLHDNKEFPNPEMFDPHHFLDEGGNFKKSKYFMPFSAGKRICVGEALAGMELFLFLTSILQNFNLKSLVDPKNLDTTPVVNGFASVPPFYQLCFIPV

As for `CNc1nc2[nH]c(-c3cccc(CNC(=O)COC)n3)cc2c2c1ncn2C`, the half-life in series [1] was 3.7 h; in series [11] it was 0.66 h. Also, the IC50 was more than 40 µM against Cytochrome P450 2D6; 25 µM at Cytochrome P450 2C9; 0.009 µM in series [3]; 0.36 µM in series [7]; more than 40 µM on Cytochrome P450 2C19; 1.7 µM with Blood. Besides, 1.11 µM corresponded to half-maximal inhibition against Ephrin type-B receptor 1 (IC50). The inhibition in [2] and in [10] was more than 75% in each case. The same compound registered a logP in series [4] of 2. Also, the Activity entry in the series on Mus musculus [5] and with Mus musculus [9] was “Dose-dependent effect” each time. For the same compound, the AUC at 8 h in [6] is 16 µM·h; in series [12], 81 µM·h. Besides, the fraction unbound in series [8] is 0.069. This compound came in with a clearance in [13] of 52 mL/min/kg.

By half-life is commonly meant the time in which the quantity being followed falls by half. Lower therefore signals fast loss. What is called IC50 is the concentration that inhibits the measured activity by half. What is called inhibition is the drop in the measured response relative to a control, in per cent. The low end stands for little suppression, the high end for strong suppression. Broadly, the logP is the decadic logarithm of the partition coefficient of the neutral form, usually between octanol and water. The term AUC denotes the area under the concentration-time curve, a measure of exposure. A higher AUC goes with more exposure. A word on the clearance: it is the rate of elimination divided by the concentration. Low readings indicate inefficient removal, high ones efficient removal.

Source of the values: ChEMBL document CHEMBL1921674, “Novel tricyclic inhibitors of IKK2: discovery and SAR leading to the identification of 2-methoxy-N-((6-(1-methyl-4-(methylamino)-1,6-dihydroimidazo[4,5-d]pyrrolo[2,3-b]pyridin-7-yl)pyridin-2-yl)methyl)acetamide (BMS-066)” (Bioorg Med Chem Lett, 2011).
